# Data reported in patent US20050048587A1, “Methods for identifying tolerance modulatory compounds and uses therefor” (TolerRx, Inc., priority 2003, published 2005).
# B1: IL4: cytokine known to initiate the differentiation of Th2 cells (protein, UniProt P05112 25-153, looked up)
# Interleukin-4: HKCDITLQEIIKTLNSLTEQKTLCTELTVTDIFAASKNTTEKETFCRAATVLRQFYSHHEKDTRCLGATAQQFHRHKQLIRFLKRLDRNLWGLAGLNSCPVKEANQSTLENFLERLKTIMREKYSKCSS
# What was measured:
# Format in all cases: cell-based, human
# [1] = tested on: GATA3; test: GATA3 transcription factor mRNA expression, real-time PCR, in stimulated PBL; conditions: PBL stimulated 72 hrs with anti-CD3/anti-CD28 in presence of agent; relative to stimulated PBL without agent
# Procedure: (§1) CD4+CD45RA+naïve, CD4+CD45RA−memory cells were prepared as follows. A Buffy Coat from human peripheral blood was obtained from the Oklahoma Blood Institute and processed as follows. Blood was diluted 1:2 with PBS without Ca^++Mg^++. 30 ml diluted blood was overlaid onto 15 ml Ficoll. Tubes were spun for ˜30 minutes at 2000 rpm. The Buffy cell layer was harvested into 25 ml PBS and brought to a volume of 45 ml total. Tubes were then spun ˜10 minutes at […]. Tubes were finally combined and washed with PBS. Approximately 10 percent of the cell preparation was set aside (X-VIVO 15 media+10% FCS) and is referred to hereinafter as “PBL.”
# (§2) Cells (i.e., PDL, CD4+ naive, and CD4+ memory cells), were plated in six well dishes at approximately 3-4×10^6 cells/well. Prior to plating, wells were coated with αCD3/αCD28 antibodies. This was achieved by incubating the wells in the presence of antibodies for approximately 2 hrs at 37° C. Wells were subsequently washed with PBS. Cells were plated in X-VIVO 15 with 10% FCS. […]
# (§3) 2.5 μl Assay on Demand reagent (Applied Biosystems) were added to 25 μl TaqMan Master MiX™ and samples brought to a total volume of 50 μl with RNAse-free water. […] Reactants were detected using an Applied Biosystems QPCR instrument (i.e., ABI Program 7000 SDS Sequence Detection System). […] The relative expression of the markers in each cell type and at each time point was also determined. […]
# [2] = tested on: Tbox21; test: Tbox21 (TBX21) transcription factor mRNA expression, real-time PCR, in stimulated PBL; conditions: PBL stimulated 72 hrs with anti-CD3/anti-CD28 in presence of agent; relative to stimulated PBL without agent
# Procedure: as §1, §2, §3
# [3] = tested on: FOXP3; test: FOXP3 transcription factor mRNA expression, real-time PCR, in stimulated PBL; conditions: PBL stimulated 72 hrs with anti-CD3/anti-CD28 in presence of agent; relative to stimulated PBL without agent
# Procedure: as §1, §2, §3
# [4] = tested on: peripheral blood lymphocytes (PBLs); test: Assay of cell proliferation of stimulated PBL; conditions: PBL stimulated with anti-CD3/anti-CD28, 72 hours
# Procedure: FIG. 3 graphically depicts the proliferation of peripheral blood lymphocytes (PBLs) at 72 hours post-stimulation with αCD3/αCD28 in the presence of the known immunomodulatory agents, rapamycin, cyclosporine, and Cellcept (MMF) (anti-proliferative agent). Proliferation is relative to that observed in control, stimulated PBL (in the absence of any added agent).
# PBL were activated with anti-CD3 in combination with anti-CD28 in the presence or absence of the known immunomodulatory drugs including dexamethasone, rapamycin, cyclosporine A and Cellcept (antiproliferative agent) at the concentrations indicated. At 72 hours, RNA was prepared from the treated cells and the untreated controls. Real-time PCR was performed using cDNA from the RNA and using the primers and probes for the three transcription factors. The data are set forth in FIG. 2A-D. Dexamethasone is documented to result in a shift of in vivo immune responses towards characteristics recognized to be associated with Th2 cells when administered to both humans and animals. […] Rapamycin and cyclosporine are general immunosuppressants utilized to prevent allograft rejection in humans. Both drugs are known to utilize common cellular components. […] Cellcept is an anti-proliferative agent also used in organ transplantation. Its primary effect on the immune system is believed to be simple reduction of lymphocyte proliferation.
# [5] = tested on: Th1 cells; test: [3H] thymidine proliferation assay of differentiated Th1 cells; conditions: anti-CD3/CD-28 coated wells, 72 hrs with drug, [3H] thymidine incorporation
# Procedure: (§4) Resting, fully differentiated Th1, Th2 and Treg were seeded in wells of a 96 well plate coated with anti-CD3 and CD-28. Cells (200,000 per well) were grown in the presence or absence of a known immunomodulatory drugs including rapamycin, cyclosporine A and Cellcept (MMF) (antiproliferative agent) at the concentrations indicated for 72 hrs prior to the addition of [^3H] thymidine. The cells were then incubated with [^3H] thymidine (0.5 μCi/well) for an additional 6-18 hrs and harvested. [^3H] thymidine incorporation was determined by liquid scintillation counting.
# [6] = tested on: Th2 cells; test: [3H] thymidine proliferation assay of differentiated Th2 cells; conditions: anti-CD3/CD-28 coated wells, 72 hrs with drug, [3H] thymidine incorporation
# Procedure: as §4
# [7] = tested on: Treg cells; test: [3H] thymidine proliferation assay of differentiated Treg cells; conditions: anti-CD3/CD-28 coated wells, 72 hrs with drug, [3H] thymidine incorporation
# Procedure: as §4
# [8] = tested on: Th1 cytokines; test: Cytokine production by differentiated Th1 cells, multiplexed ELISA; conditions: anti-CD3/CD-28 coated wells, 72 hrs with drug, supernatants
# Procedure: (§5) Resting, fully differentiated Th1, Th2 and Treg were seeded in wells sof a 96 well plate coated with anti-CD3 and CD-28. Cells (200,000 per well) were grown in the presence or absence of a known immunomodulatory drugs including rapamycin, cyclosporine A and Cellcept (MMF) (antiproliferative agent) at the concentrations indicated for 72 hrs prior to the collection of supernatants for measurement of secreted cytokines. Cytokine measurement were made using a multiplexed ELISA assay (Pierce/Endogen Searchlight Assay).
# [9] = tested on: Th2 cytokines; test: Cytokine production by differentiated Th2 cells, multiplexed ELISA; conditions: anti-CD3/CD-28 coated wells, 72 hrs with drug, supernatants
# Procedure: as §5
# [10] = tested on: TGFβ by Treg cells; test: TGFβ production by differentiated Treg cells, multiplexed ELISA; conditions: anti-CD3/CD-28 coated wells, 72 hrs with drug, supernatants
# Procedure: as §5
Molecule,effect on GATA3 (Th2 transcription factor) expression [1],effect on Tbox21/TBX21 (Th1 transcription factor) expression [2],effect on FOXP3 (Treg transcription factor) expression [3],effect on cell proliferation [4],effect on proliferation of Th1 cells [5],effect on proliferation of Th2 cells [6],effect on proliferation (expansion) of Treg cells [7],effect on Th1 cytokine production [8],effect on Th2 cytokine production [9],effect on production of TGFβ by Treg cells [10]
COc1c(C)c2c(c(O)c1C/C=C(\C)CCC(=O)OCCN1CCOCC1)C(=O)OC2 [Cellcept],did not affect,did not affect,did not affect,dose-dependent inhibition of proliferation,equally inhibited the expansion of all cell types in a dose dependent manner,equally inhibited the expansion of all cell types in a dose dependent manner,equally inhibited the expansion of all cell types in a dose dependent manner,does not suppress,does not suppress,does not suppress any cytokine measured except for TGFβ in T reg cells
TGFβ,,,induced,,,,,,,
B1,clearly increased,,,,,,,,,
